Where a SMILES comes first, the peptide text is derived from it. [ ]: non-standard residue; d: D form. pGlu = O=C1CC[C@@H](C(=O)O)N1; Thz = O=C(O)[C@@H]1CSCN1
target: BTK (Homo sapiens, UniProt Q06187); test: biochemical; conditions: read-out: BTK inhibition (%), 0.75 uM BTK, […] probe 3l, 15 min preincubation
Sequence (Q06187 402-655 limits assumed): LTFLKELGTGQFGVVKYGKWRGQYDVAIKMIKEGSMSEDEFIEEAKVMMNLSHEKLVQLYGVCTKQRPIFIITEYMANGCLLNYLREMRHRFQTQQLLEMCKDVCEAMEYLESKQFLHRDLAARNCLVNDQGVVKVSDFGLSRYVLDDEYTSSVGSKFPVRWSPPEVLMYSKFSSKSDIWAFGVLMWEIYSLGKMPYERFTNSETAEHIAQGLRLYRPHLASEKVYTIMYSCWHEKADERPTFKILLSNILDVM

SMILES | inhibition at 10 µM [%]
CNC(=O)CN1CCC(Oc2cc3c(Nc4cccc(Cl)c4F)ncnc3cc2OC)CC1 [PCM-0095236] | 23.4
O=C(Nc1cn[nH]c1-c1nc2ccc(CN3CCOCC3)cc2[nH]1)NC1CC1 [PCM-0094942] | 93.8
CNC(=O)c1nn(C)c2c1C(C)(C)Cc1cnc(Nc3ccc(N4CCN(C)CC4)cc3)nc1-2 [PCM-0095492] | 44.1
C[C@H](N)C(=O)O [PCM-0216222] | -4.3
C=CCS[S+]([O-])CC=C (centres unmarked) [PCM-0215928] | -21
COc1ccc2c(c1OC)CC1c3c(cc4c(c3-2)OCO4)CCN1C (centres unmarked) [PCM-0216450] | 0.8
COc1ccc(-n2c(SCCCN3C(=O)c4cccc5cccc(c45)C3=O)nnc2-c2ccncc2)cc1 [PCM-0215315] | -9.3
CC1=C(C(=O)Nc2cc3cn[nH]c3cc2F)C(c2ccc(C(F)(F)F)cc2)CC(=O)N1 (centres unmarked) [PCM-0095153] | 48.3
CCc1c(O)cc(O)c(C(=O)c2ccc(OCCN3CCOCC3)c(OC)c2)c1CC(=O)N(CCOC)CCOC [PCM-0095381] | 2.3
Nc1ccc(S(=O)(=O)Nc2cnc3ccccc3n2)cc1 [PCM-0215994] | 8.5
NC(=O)N/N=C/c1ccc([N+](=O)[O-])o1 [PCM-0085977] | 0.8
C1CNCCNCCNCCN1 [PCM-0215094] | -4.7
CCOC(=O)c1cc2ccccc2oc1=O [PCM-0216280] | -16.2
O=C(Cc1ccc(-c2ccc(OCCN3CCOCC3)cc2)cn1)NCc1ccccc1 [PCM-0095410] | -2.8
Nc1cc(C(F)(F)F)c(-c2cc(N3CCOCC3)nc(N3CCOCC3)n2)cn1 [PCM-0095286] | -4.1
CC(C)=CCC/C(C)=C/Cc1c(O)c(CC=C(C)C)c2c(c1O)C(=O)C1=C[C@@H]3C[C@H]4C(C)(C)O[C@@](C/C=C(/C)C(=O)O)(C3=O)[C@@]14O2 [PCM-0216347] | 100
C#C[C@]1(O)CC[C@H]2[C@@H]3CCC4=CC(=O)CC[C@@H]4[C@H]3C(=C)C[C@@]21CC [PCM-0214842] | 3.1
Cn1cc(C2=C(c3cn(CCCSC(=N)N)c4ccccc34)C(=O)NC2=O)c2ccccc21 [PCM-0215237] | 117
C[C@@H]1CCO[C@H]2Cn3cc(C(=O)NCc4ccc(F)cc4F)c(=O)c(O)c3C(=O)N12 [PCM-0214696] | 30.4

SMILES | inhibition at 10 µM [%]
CCOC(=O)c1c2c3c(cccc3[nH]c1=O)C(=O)c1ccccc1-2 [PCM-0215657] | -20.1
O=c1[nH]nc2c3c(cccc13)NC(CN1Cc3ccccc3C1)=N2 [PCM-0215799] | 0.8
CCOC(=O)NC/C=C/c1ccc2ncnc(Nc3ccc(Oc4ccc(C)nc4)c(C)c3)c2c1 [PCM-0095019] | -15.9
CN(C)CCCCC(=O)Nc1ccc(NC(=S)NC(=O)c2ccc(C(C)(C)C)cc2)cc1 [PCM-0214793] | 7
CNCC[C@H](Oc1cccc2ccccc12)c1cccs1 [PCM-0090599] | -1.6
COc1ccc(-c2cc(=O)c3c(O)cc(O[C@@H]4O[C@H](CO)[C@@H](O)[C@H](O)[C@H]4O[C@@H]4O[C@@H](C)[C@H](O)[C@@H](O)[C@H]4O)cc3o2)cc1O [PCM-0216549] | 1.5
Oc1cc2c(cc1O)[C@@H]1c3ccc(O)c(O)c3OC[C@]1(O)C2 [PCM-0094861] | -15.6
COC1[C@@H](O)[C@@H](O)C(O)[C@H](O)[C@H]1O (some centres unmarked) [PCM-0215037] | -11
C[N+]1(C)CCC[C@H]1C(=O)[O-] [PCM-0214966] | 7.8
C/C(=N\NC(=O)c1cccc(S(=O)(=O)N2CCOCC2)c1)c1cc(Cl)ccc1O [PCM-0215399] | 25.5
CCn1cc(C(=O)O)c(=O)c2ccc(C)nc21 [PCM-0012961] | 5.4
O=c1cccc2n1C[C@@H]1CNC[C@H]2C1 [PCM-0094836] | -10.1
Nc1cc(C(Cl)=C(Cl)Cl)c(S(N)(=O)=O)cc1S(N)(=O)=O [PCM-0086106] | -3.9
CC(C)(C)c1cc(NC(=O)Nc2ccc(Oc3ccnc4[nH]c(=O)cnc34)cc2F)n(-c2ccccc2)n1 [PCM-0215780] | 61.4
CO/N=C(\C(=O)N[C@@H]1C(=O)N2C(C(=O)OC(C)OC(C)=O)=C(COC(N)=O)CS[C@H]12)c1ccco1 (some centres unmarked) [PCM-0215079] | 2.8
CC(=O)OCC(=O)[C@H]1CC[C@H]2[C@@H]3CCC4=CC(=O)CC[C@]4(C)[C@H]3CC[C@]12C [PCM-0214761] | -11.7
O=C1CC[C@@H](C(=O)N2CSC[C@H]2C(=O)O)N1 [PCM-0090672] ([pGlu]-[Thz]-OH) | 11.7
O=c1cc(CN2CCOCC2)occ1OCCCCCSc1ccnc2cc(C(F)(F)F)ccc12 [PCM-0095730] | -34.7
O=C(O)CCCc1ccccc1 [PCM-0095550] | -12.4

SMILES | inhibition at 10 µM [%]
Cc1cnc(C(=O)N[C@H]2CCCCC/C=C\[C@@H]3C[C@@]3(C(=O)NS(=O)(=O)C3CC3)NC(=O)[C@@H]3C[C@@H](Oc4nc5ccccc5c5ccccc45)CN3C2=O)cn1 [PCM-0216057] | 53.3
CC(C)=CCC[C@](C)(O[C@@H]1O[C@H](CO)[C@@H](O)[C@H](O)[C@H]1O)[C@H]1CC[C@]2(C)[C@@H]1[C@H](O)C[C@@H]1[C@@]3(C)CC[C@H](O)C(C)(C)[C@@H]3[C@@H](O[C@@H]3O[C@H](CO)[C@@H](O)[C@H](O)[C@H]3O[C@@H]3O[C@@H](C)[C@H](O)[C@@H](O)[C@H]3O)C[C@]12C [PCM-0214989] | -8.6
CN1CCN(c2ccc(OC(F)(F)F)c(Nc3ncc4c(n3)-c3c(c(C(N)=O)nn3CCO)CC4)c2)CC1 [PCM-0215357] | -26.9
Cc1cc(C)c2c(c1)[C@@H](N(Cc1cc(C(F)(F)F)cc(C(F)(F)F)c1)c1nnn(C)n1)CCCN2CC1CCC(C(=O)O)CC1 (some centres unmarked) [PCM-0095426] | 16.3
COc1ccc(/C=C/C(=O)Nc2ccccc2C(=O)O)cc1OC [PCM-0065010] | 13.8
CCCCc1nc(Cl)c(CO)n1Cc1ccc(-c2ccccc2-c2nnn[nH]2)cc1 [PCM-0086291] | -10.9
COC(=O)c1ccccc1O [PCM-0215919] | -10.9
NNc1nncc2ccccc12 [PCM-0065163] | -0.9
C[C@H]1CO[C@@H]2Cn3cc(C(=O)NCc4ccc(F)cc4F)c(=O)c(O)c3C(=O)N12 [PCM-0215445] | 24.7
CN(C)CCC[C@@]1(c2ccc(F)cc2)OCc2cc(C#N)ccc21 [PCM-0064474] | -6.2
Clc1ccc(C2(c3ccc(-c4cn[nH]c4)cc3)CCNCC2)cc1 [PCM-0095120] | 6.9
CC(C)(C)OC(=O)N[C@@H]1CCCC[C@H]1N [PCM-0215045] | -24.1
N#CC(C#N)=NNc1ccc(OC(F)(F)F)cc1 [PCM-0215645] | 52.5
C[C@H](CCC(=O)O)[C@H]1CC[C@H]2[C@@H]3[C@@H](O)C[C@@H]4C[C@H](O)CC[C@]4(C)[C@H]3CC[C@]12C [PCM-0214641] | 24.1
COc1c(O)cc2c(c1O)[C@@H]1O[C@H](CO)[C@@H](O)[C@H](O)[C@H]1OC2=O [PCM-0214672] | 7
CCCCN1CCCC[C@H]1C(=O)Nc1c(C)cccc1C [PCM-0214809] | -25.7
CCCCCCCCCCCCCCCCCC[N+](C)(C)C [PCM-0216157] | -27
Nc1ccc(O)cc1 [PCM-0216110] | 82.6

— paper PMC8041284, “Tunable Methacrylamides for Covalent Ligand Directed Release Chemistry” (Journal of the American Chemical Society, 2021)
